One data set relates to KG-1. The data set is described as follows: Antiproliferative activity against human KG1 cells expressing FGFR1 after 72 hrs. The settings on record: KG-1, 72 h. Type of data set: functional, cell-based.
Sequence of Fibroblast growth factor receptor 3 (P22607 whole entry): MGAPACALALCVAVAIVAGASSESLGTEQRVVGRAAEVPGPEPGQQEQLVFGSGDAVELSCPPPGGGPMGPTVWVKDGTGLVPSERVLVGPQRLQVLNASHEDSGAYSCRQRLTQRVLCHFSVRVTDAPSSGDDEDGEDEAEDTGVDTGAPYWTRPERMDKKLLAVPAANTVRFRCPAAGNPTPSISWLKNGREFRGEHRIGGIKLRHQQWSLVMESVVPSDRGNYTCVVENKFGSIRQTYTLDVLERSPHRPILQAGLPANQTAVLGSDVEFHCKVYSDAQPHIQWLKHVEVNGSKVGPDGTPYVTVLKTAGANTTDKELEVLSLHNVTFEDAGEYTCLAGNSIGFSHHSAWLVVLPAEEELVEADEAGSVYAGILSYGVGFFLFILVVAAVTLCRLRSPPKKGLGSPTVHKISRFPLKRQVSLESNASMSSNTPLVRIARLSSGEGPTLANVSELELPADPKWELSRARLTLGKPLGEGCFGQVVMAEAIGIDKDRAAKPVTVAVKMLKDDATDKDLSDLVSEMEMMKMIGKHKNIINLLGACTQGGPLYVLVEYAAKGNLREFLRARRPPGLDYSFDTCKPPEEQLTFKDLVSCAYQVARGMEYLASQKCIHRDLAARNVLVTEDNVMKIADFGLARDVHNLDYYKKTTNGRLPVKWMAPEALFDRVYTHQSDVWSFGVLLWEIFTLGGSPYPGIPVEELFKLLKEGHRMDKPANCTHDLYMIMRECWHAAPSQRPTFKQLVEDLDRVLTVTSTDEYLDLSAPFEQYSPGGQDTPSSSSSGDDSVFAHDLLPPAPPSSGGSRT
By IC50 is commonly meant the concentration at which inhibition is half-maximal. The compound `CNC(=O)c1cccc2cc(Oc3ccnc(NC(=O)c4ccc(OCCN5CC(F)(F)C5)cc4)c3)ccc12` showed an IC50 below 4.1 nM. Same read-out and setting: with `CNC(=O)c1cccc2cc(Oc3ccnc(NC(=O)c4ccc(OCCN5CCCC5)cc4)c3)ccc12` the figure was below 4.1 nM; with `CNC(=O)c1cccc2cc(Oc3ccnc(NC(=O)c4ccc(N5CCOCC5)cc4)c3)ccc12`, 9.3 nM. Turning to `CNC(=O)c1cccc2cc(Oc3ccnc(NC(=O)c4ccc(C5CCN(CCO)CC5)cc4)c3)ccc12`, the IC50 is below 4.1 nM. Same read-out and setting: with `CNC(=O)c1cccc2cc(Oc3ccnc(NC(=O)c4ccc(N5C[C@@H](C)N[C@@H](C)C5)cc4)c3)ccc12` the figure was 14.9 nM; with `COc1cc(OC)c(F)c(COc2ccc(NC(=O)c3ccc(N4C[C@@H](C)N[C@@H](C)C4)cc3)nc2)c1F`, 116 nM; with `CCNC(=O)N1CCCc2cc(Oc3ccnc(NC(=O)c4ccc(N5C[C@@H](C)N[C@@H](C)C5)cc4)c3)ccc21`, 118 nM.

For another data set, the system named is SNU-16. In words: Antitumor activity against human SNU16 cells xenografted in nude mouse assessed as tumor growth inhibition at 50 mg/kg, ip qd administered for 21 consecutive days and measured twice per week relative to control. Type of data set: functional. To be noted: SNU-16, ip, read-out: TGI. A general note: In xenograft studies the graft and the host belong to different species.
On to `CNC(=O)c1cccc2cc(Oc3ccnc(NC(=O)c4ccc(N5CCN(C)CC5)cc4)c3)ccc12.Cl.Cl`, for which the inhibition in vivo at 50 mg/kg stood at 81%.

The next data set deals with Fibroblast growth factor receptor 1 (Homo sapiens, UniProt P11362). In words: Inhibition of recombinant FGFR1 (unknown origin) using poly (Glu, Tyr) 4:1 as substrate after 60 mins by ELISA based spectrophotometric method.
Sequence of Fibroblast growth factor receptor 1 (P11362 whole entry): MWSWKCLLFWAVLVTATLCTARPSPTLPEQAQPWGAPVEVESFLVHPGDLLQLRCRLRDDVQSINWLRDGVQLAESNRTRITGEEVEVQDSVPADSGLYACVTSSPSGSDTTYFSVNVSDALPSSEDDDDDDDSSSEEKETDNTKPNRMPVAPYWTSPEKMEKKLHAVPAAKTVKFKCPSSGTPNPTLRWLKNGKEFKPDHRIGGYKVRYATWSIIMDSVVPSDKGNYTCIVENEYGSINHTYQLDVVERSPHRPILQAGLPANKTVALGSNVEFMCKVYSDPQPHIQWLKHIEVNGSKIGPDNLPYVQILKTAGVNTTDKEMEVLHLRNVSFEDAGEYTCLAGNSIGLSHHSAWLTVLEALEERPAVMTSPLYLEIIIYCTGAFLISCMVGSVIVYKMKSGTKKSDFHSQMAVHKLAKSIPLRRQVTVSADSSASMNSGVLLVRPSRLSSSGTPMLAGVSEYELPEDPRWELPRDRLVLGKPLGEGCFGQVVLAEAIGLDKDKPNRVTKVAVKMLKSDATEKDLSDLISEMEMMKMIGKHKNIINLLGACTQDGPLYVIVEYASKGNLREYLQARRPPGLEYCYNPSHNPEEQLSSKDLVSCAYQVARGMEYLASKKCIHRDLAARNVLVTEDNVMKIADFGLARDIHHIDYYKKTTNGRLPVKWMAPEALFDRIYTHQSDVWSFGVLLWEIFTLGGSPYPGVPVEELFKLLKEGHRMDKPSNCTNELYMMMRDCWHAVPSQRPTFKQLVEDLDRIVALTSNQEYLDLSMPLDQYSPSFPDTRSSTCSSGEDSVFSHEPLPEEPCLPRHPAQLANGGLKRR
Conditions: not given
On the technique in general: In an ELISA, binding on a coated surface is turned into a signal by an enzyme label.
As for `CNC(=O)c1cccc2cc(Oc3ccnc(NC(=O)c4ccc(N5C[C@@H](C)N[C@@H](C)C5)cc4OC)c3)ccc12`, the IC50 amounted to 285 nM. The same measure, in the same setting: the value for `COc1cc(OC)c(Cl)c(CCOc2ccnc(NC(=O)c3ccc(N4C[C@@H](C)N[C@@H](C)C4)cc3)c2)c1Cl` was above 1000 nM; that for `CNC(=O)c1cccc2cc(Oc3ccnc(NC(=O)c4csc(N5CCN(C)CC5)n4)c3)ccc12` was 7.6 nM. Still for that read-out and setting: the value for `CNC(=O)c1cccc2cc(Oc3ccnc(NC(=O)c4ccc(N5C[C@@H](C)N[C@@H](C)C5)cc4F)c3)ccc12` was above 1000 nM. The same measure, in the same setting: with `CC(Oc1ccc(NC(=O)c2ccc(N3C[C@@H](C)N[C@@H](C)C3)cc2)nc1)c1c(Cl)cncc1Cl` (some centres not stated) the figure was above 1000 nM; with `CNC(=O)c1cccc2cc(Oc3ccnc(NC(=O)c4coc(N5CCN(C)CC5)n4)c3)ccc12`, 2.8 nM; with `CNC(=O)c1cccc2cc(Oc3ccnc(NC(=O)c4ccc(OCCN5CC(F)(F)C5)cc4)c3)ccc12`, 6.1 nM.

On to `CNC(=O)c1cccc2cc(Oc3ccnc(NC(=O)c4ccc(OCCN5CCCC5)cc4)c3)ccc12`, for which the half-inhibitory concentration (IC50) turned out to be 4.1 nM. Same read-out and setting: the value for `CNC(=O)c1cccc2cc(Oc3ccnc(NC(=O)c4ccc(N5CCOCC5)cc4)c3)ccc12` was 1.2 nM. On the same count and under the same terms, the value for `CNC(=O)c1cccc2cc(Oc3ccnc(NC(=O)c4ccc(C5CCN(CCO)CC5)cc4)c3)ccc12` was 1.2 nM; that for `CNC(=O)c1cccc2cc(Oc3ccnc(NC(=O)c4ccc(N5C[C@@H](C)N[C@@H](C)C5)cc4)c3)ccc12` was 2.1 nM; that for `COc1cc(OC)c(F)c(COc2ccc(NC(=O)c3ccc(N4C[C@@H](C)N[C@@H](C)C4)cc3)nc2)c1F` was 22.2 nM. On the same count and under the same terms, the value for `COc1cc(CCOc2ccnc(NC(=O)c3ccc(N4C[C@@H](C)N[C@@H](C)C4)cc3)c2)cc(OC)c1` was above 1000 nM; that for `CCNC(=O)N1CCCc2cc(Oc3ccnc(NC(=O)c4ccc(N5C[C@@H](C)N[C@@H](C)C5)cc4)c3)ccc21` was 132 nM.

A further data set concerns the target Fibroblast growth factor receptor 3 (Homo sapiens, UniProt P22607). The data set is described as follows: Inhibition of FGFR3 (unknown origin).
Conditions: not given
`CNC(=O)c1cccc2cc(Oc3ccnc4cc(OCC5(N)CC5)c(OC)cc34)ccc12` [LUCITANIB] displayed an IC50 of 238 nM.

The next data set deals with Mus musculus. In words: Toxicity in nude mouse xenografted with human SNU16 cells assessed as body weight loss at 10 to 50 mg/kg, ip qd administered for 21 consecutive days and measured twice per week. Type of data set: organism-based. To be noted: in vivo.
`CNC(=O)c1cccc2cc(Oc3ccnc(NC(=O)c4ccc(N5CCN(C)CC5)cc4)c3)ccc12.Cl.Cl`: the Activity entry is “Non-Toxic”.

The next data set relates to SNU-16. To be noted: Homo sapiens.
Description: Antitumor activity against human SNU16 cells xenografted in nude mouse assessed as tumor growth inhibition administered ip qd for 21 consecutive days and measured twice per week
For the compound `CNC(=O)c1cccc2cc(Oc3ccnc(NC(=O)c4ccc(N5CCN(C)CC5)cc4)c3)ccc12`, the TGI result is “Dose-dependent effect”.

The subject of the next data set is SNU-16. In words: Antitumor activity against human SNU16 cells xenografted in nude mouse assessed as tumor growth inhibition at 10 mg/kg, ip qd administered for 21 consecutive days and measured twice per week relative to control. Type of data set: functional. The settings on record: SNU-16, ip, read-out: TGI.
Regarding `CNC(=O)c1cccc2cc(Oc3ccnc(NC(=O)c4ccc(N5CCN(C)CC5)cc4)c3)ccc12.Cl.Cl`, the inhibition in vivo at 10 mg/kg amounted to 25%.

Tested on in another data set: not listed separately
In words: Aqueous solubility of the compound. Format: physicochemical. To be noted: buffer.
Consider `CNC(=O)c1cccc2cc(Oc3ccnc(NC(=O)c4ccc(N5CCN(C)CC5)cc4)c3)ccc12.Cl.Cl`, for which the solubility entry is listed as “Soluble”.

For the origin of these results see ChEMBL document CHEMBL4270521, “Design, synthesis and biological evaluation of a series of novel 2-benzamide-4-(6-oxy-N-methyl-1-naphthamide)-pyridine derivatives as potent fibroblast growth factor receptor (FGFR) inhibitors” (Eur J Med Chem, 2018).
